According to patent US12180187B2, “1-phenyl-5-azinylpyrazolyl-3-oxyalkyl acids and their use for controlling unwanted plant growth” (BAYER AKTIENGESELLSCHAFT, priority 2019, dated 2024):

What was measured:
[1] = tested on: ALOMY; assay: Pre-emergence action against ALOMY, 1280 g/ha; assay type: in vivo, Alopecurus myosuroides; conditions: visual scoring after about 3 weeks vs untreated controls, 100% = plants have died, 0% = like control plants
Summary of the method: (§1)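 Mono- and dicot weed seeds sown in sandy loam were treated on the covering soil surface with WP or EC formulations plus 0.5% additive at 600 L water/ha. Pots stayed in a greenhouse; damage was scored visually after ~3 weeks as percent versus untreated controls (100% = dead).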

[2] = tested on: DIGSA; assay: Pre-emergence action against DIGSA, 1280 g/ha; assay type: in vivo, Digitaria sanguinalis; conditions: visual scoring after about 3 weeks vs untreated controls, 100% = plants have died, 0% = like control plants
Summary of the method: as §1

[3] = tested on: ECHCG; assay: Pre-emergence action against ECHCG, 1280 g/ha; assay type: in vivo, Echinochloa crus-galli; conditions: visual scoring after about 3 weeks vs untreated controls, 100% = plants have died, 0% = like control plants
Summary of the method: as §1

[4] = tested on: LOLRI; assay: Pre-emergence action against LOLRI, 1280 g/ha; assay type: in vivo, Lolium rigidum; conditions: visual scoring after about 3 weeks vs untreated controls, 100% = plants have died, 0% = like control plants
Summary of the method: as §1

[5] = tested on: POAAN; assay: Pre-emergence action against POAAN, 1280 g/ha; assay type: in vivo, Poa annua; conditions: visual scoring after about 3 weeks vs untreated controls, 100% = plants have died, 0% = like control plants
Summary of the method: as §1

[6] = tested on: SETVI; assay: Pre-emergence action against SETVI, 1280 g/ha; assay type: in vivo, Setaria viridis; conditions: visual scoring after about 3 weeks vs untreated controls, 100% = plants have died, 0% = like control plants
Summary of the method: as §1

[7] = tested on: AMARE; assay: Pre-emergence action against AMARE, 1280 g/ha; assay type: in vivo, Amaranthus retroflexus; conditions: scored visually after about 3 weeks vs untreated controls (100% = plants have died)
Summary of the method: as §1

[8] = tested on: MATIN; assay: Pre-emergence action against MATIN, 1280 g/ha; assay type: in vivo, Tripleurospermum inodorum (Matricaria inodora); conditions: scored visually after about 3 weeks vs untreated controls (100% = plants have died)
Summary of the method: as §1

[9] = tested on: STEME; assay: Pre-emergence action against STEME, 1280 g/ha; assay type: in vivo, Stellaria media; conditions: scored visually after about 3 weeks vs untreated controls (100% = plants have died)
Summary of the method: as §1

[10] = tested on: VERPE; assay: Pre-emergence action against VERPE, 1280 g/ha; assay type: in vivo, Veronica persica; conditions: scored visually after about 3 weeks vs untreated controls (100% = plants have died)
Summary of the method: as §1

[11] = tested on: ALOMY; assay: Pre-emergence action at 320 g/ha against ALOMY; assay type: in vivo, Alopecurus myosuroides; conditions: scored visually after about 3 weeks vs untreated controls (100% = plants have died)
Summary of the method: (§2)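 Application: aqueous WP or EC with 0.5% additive on soil covering seeds, 600 l/ha. Read-out: visual percent damage after ~3 weeks in greenhouse, untreated pots as reference.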

[12] = tested on: AVEFA; assay: Pre-emergence action at 320 g/ha against AVEFA; assay type: in vivo; conditions: visual scoring after about 3 weeks vs untreated controls
Summary of the method: as §2

[13] = tested on: DIGSA; assay: Pre-emergence action at 320 g/ha against DIGSA; assay type: in vivo, Digitaria sanguinalis; conditions: visual scoring after about 3 weeks vs untreated controls
Summary of the method: as §2

[14] = tested on: ECHGC; assay: Pre-emergence action at 320 g/ha against ECHGC; assay type: in vivo, Echinochloa crus-galli; conditions: visual scoring after about 3 weeks vs untreated controls
Summary of the method: as §2

[15] = tested on: LOLRI; assay: Pre-emergence action at 320 g/ha against LOLRI; assay type: in vivo, Lolium rigidum; conditions: visual scoring after about 3 weeks vs untreated controls
Summary of the method: as §2

[16] = tested on: SETVI; assay: Pre-emergence action at 320 g/ha against SETVI; assay type: in vivo, Setaria viridis; conditions: visual scoring after about 3 weeks vs untreated controls
Summary of the method: as §2

[17] = tested on: ABUTH; assay: Pre-emergence action at 320 g/ha against ABUTH; assay type: in vivo, Abutilon theophrasti; conditions: greenhouse, scored visually after about 3 weeks vs untreated controls, 100% = plants have died, 0% = like control plants
Description: b) Seeds of monocotyledonous and dicotyledonous weed plants and crop plants are placed in plastic or organic planting pots and covered with soil. The compounds of the invention, formulated in the form of wettable powders (WP) or as emulsion concentrates (EC), are then applied onto the surface of the covering soil as aqueous suspension or emulsion with addition of 0.5% additive at a water application rate of 600 l/ha (converted). After the treatment, the pots are placed in a greenhouse and kept under good growth conditions for the trial plants. After about 3 weeks, the effect of the preparations is scored visually in comparison with untreated controls as percentages. For example, 100% activity=the plants have died, 0% activity=like control plants. Tables 13 to 26 below show the effects of selected compounds of the general formula (I) on various harmful plants and at an application rate corresponding to 320 g/ha, which were obtained by the experimental procedure mentioned above.

[18] = tested on: AMARE; assay: Pre-emergence action at 320 g/ha against AMARE; assay type: in vivo, Amaranthus retroflexus; conditions: visual scoring after about 3 weeks vs untreated controls
Summary of the method: as §2

[19] = tested on: MATIN; assay: Pre-emergence action at 320 g/ha against MATIN; assay type: in vivo, Tripleurospermum inodorum (Matricaria inodora); conditions: visual scoring after about 3 weeks vs untreated controls
Summary of the method: as §2

[20] = tested on: POLCO; assay: Pre-emergence action at 320 g/ha against POLCO; assay type: in vivo, Fallopia convolvulus (Polygonum convolvulus); conditions: visual scoring after about 3 weeks vs untreated controls
Summary of the method: as §2

[21] = tested on: VERPE; assay: Pre-emergence action at 320 g/ha against VERPE; assay type: in vivo, Veronica persica; conditions: visual scoring after about 3 weeks vs untreated controls
Summary of the method: as §2

[22] = tested on: VIOTR; assay: Pre-emergence action at 320 g/ha against VIOTR; assay type: in vivo, Viola tricolor; conditions: dosage 320 g/ha
Summary of the method: as §2

[23] = tested on: ALOMY; assay: Post-emergence action against ALOMY, 1.28 kg/ha; assay type: in vivo, Alopecurus myosuroides; conditions: dosage 1280 g/ha, visual rating about 3 weeks after treatment vs untreated controls
Summary of the method: (§3)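 Weeds grown in sandy loam in a greenhouse were sprayed at the one-leaf stage, 2–3 weeks after sowing, with WP or EC formulations in water containing 0.5% additive at 600 L/ha. About 3 weeks later, damage was scored visually versus untreated controls (0% = like control, 100% = dead).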

[24] = tested on: DIGSA; assay: Post-emergence action against DIGSA, 1.28 kg/ha; assay type: in vivo, Digitaria sanguinalis; conditions: dosage 1280 g/ha, visual rating about 3 weeks after treatment vs untreated controls
Summary of the method: as §3

[25] = tested on: ECHCG; assay: Post-emergence action against ECHCG, 1.28 kg/ha; assay type: in vivo, Echinochloa crus-galli; conditions: dosage 1280 g/ha, visual rating about 3 weeks after treatment vs untreated controls
Summary of the method: as §3

[26] = tested on: LOLRI; assay: Post-emergence action against LOLRI, 1.28 kg/ha; assay type: in vivo, Lolium rigidum; conditions: dosage 1280 g/ha, visual rating about 3 weeks after treatment vs untreated controls
Summary of the method: as §3

[27] = tested on: POAAN; assay: Post-emergence action against POAAN, 1.28 kg/ha; assay type: in vivo, Poa annua; conditions: dosage 1280 g/ha, visual rating about 3 weeks after treatment vs untreated controls
Summary of the method: as §3

[28] = tested on: ABUTH; assay: Post-emergence action against ABUTH, 1.28 kg/ha; assay type: in vivo, Abutilon theophrasti; conditions: dosage 1280 g/ha, visual rating about 3 weeks after treatment vs untreated controls (100% = plants died)
Summary of the method: as §3

[29] = tested on: AMARE; assay: Post-emergence action against AMARE, 1.28 kg/ha; assay type: in vivo, Amaranthus retroflexus; conditions: dosage 1280 g/ha, visual rating about 3 weeks after treatment vs untreated controls (100% = plants died)
Summary of the method: as §3

[30] = tested on: VERPE; assay: Post-emergence action against VERPE, 1.28 kg/ha; assay type: in vivo, Veronica persica; conditions: dosage 1280 g/ha, visual rating about 3 weeks after treatment vs untreated controls (100% = plants died)
Summary of the method: as §3

[31] = tested on: PHBPU; assay: Pre-emergence action at 320 g/ha against PHBPU; assay type: in vivo; conditions: visual scoring after about 3 weeks vs untreated controls
Summary of the method: as §2

SMILES	Pre-emergence action at 320 g/ha against ALOMY in % [11] [%]	Pre-emergence action against AVEFA in % [12] [%]	Pre-emergence action against DIGSA in % [13] [%]	Pre-emergence action against ECHGC in % [14] [%]	Pre-emergence action against LOLRI in % [15] [%]	Pre-emergence action against SETVI in % [16] [%]	Pre-emergence action at 320 g/ha against ABUTH in % [17] [%]	Pre-emergence action against AMARE in % [18] [%]	Pre-emergence action against MATIN in % [19] [%]	Pre-emergence action against POLCO in % [20] [%]	Pre-emergence action against VERPE in % [21] [%]	Pre-emergence action against VIOTR in % [22] [%]	other results
CON(C)C(=O)COc1nn(-c2ccccc2F)c(-c2ccc(F)nc2)c1Br [Example X-019]	100	80	100	100	100	100	80	100	100	90	100	100	Pre-emergence action against ALOMY [1]: 100%; Pre-emergence action against DIGSA [2]: 100%; Pre-emergence action against ECHCG [3]: 100%; Pre-emergence action against LOLRI [4]: 100%; Pre-emergence action against POAAN [5]: 100%; Pre-emergence action against SETVI [6]: 100%; Pre-emergence action against AMARE [7]: 100%; Pre-emergence action against MATIN [8]: 100%; Pre-emergence action against STEME [9]: 90%; Pre-emergence action against VERPE [10]: 90%; Post-emergence action against ALOMY [23]: 100%; Post-emergence action against DIGSA [24]: 90%; Post-emergence action against ECHCG [25]: 100%; Post-emergence action against LOLRI [26]: 90%; Post-emergence action against POAAN [27]: 100%; Post-emergence action against ABUTH [28]: 90%; Post-emergence action against AMARE [29]: 90%; Post-emergence action against VERPE [30]: 90%
CCOC(=O)CN(C)S(=O)(=O)NC(=O)COc1nn(-c2ccccc2F)c(-c2ccc(F)nc2)c1Br [Example X-031]	90	80	100	80	80	100	80	90	80	80	90	90	Pre-emergence action against PHBPU in % [31]: 90%
